Values joined by “and” are separate entries in the source; they are usually repeats but may differ in a detail not shown here. Identical values can stand only once. Like-named read-outs stand apart in the source and are kept apart here. Each block holds one compound with its values, some of them ahead of it. *1 amine or outer side, *2 acyl side, *3 side chain or, on linkers, in order; H or OH if unused. Where a SMILES comes first, the peptide text is derived from it. Side-chain parts run from the residue outwards. [ ]: non-standard residue; d: D form. The star is where a group is joined. C20 diacid = O=C(O)CCCCCCCCCCCCCCCCCCC(=O)*; γGlu = O=C(O)[C@H](CCC(=O)[*:2])N[*:1]; εLys = N[C@@H](CCCCN[*:1])C(=O)[*:2]; NMeI = CC[C@H](C)[C@H](NC)C(=O)O; αMeL = CC(C)C[C@](C)(N)C(=O)O; AEEA = NCCOCCOCC(=O)O; Aib = CC(C)(N)C(=O)O
Legend:
[1] = Pharmacokinetics in Sprague Dawley rats, single subcutaneous or intravenous dose (incl. 10, 30, 100 nmol/kg dose response); format: in vivo; conditions: for Tmax: read-out: Tmax
human CRHR1 = molecular target: T1, human CRHR1 (Homo sapiens, UniProt P34998); assay: Human CRHR1 cAMP assay (HTRF) in HEK293 cells stably expressing human CRHR1; format: cell-based; conditions: HEK293 cells overexpressing human CRHR1; relative EC50, maximum 66 nM human UCN1; mean ± SE; read-out: hCRHR1 cAMP EC50 (pM, ± SE)
T1 construct: expressed in transfected cells
T1 sequence (P34998 24-415): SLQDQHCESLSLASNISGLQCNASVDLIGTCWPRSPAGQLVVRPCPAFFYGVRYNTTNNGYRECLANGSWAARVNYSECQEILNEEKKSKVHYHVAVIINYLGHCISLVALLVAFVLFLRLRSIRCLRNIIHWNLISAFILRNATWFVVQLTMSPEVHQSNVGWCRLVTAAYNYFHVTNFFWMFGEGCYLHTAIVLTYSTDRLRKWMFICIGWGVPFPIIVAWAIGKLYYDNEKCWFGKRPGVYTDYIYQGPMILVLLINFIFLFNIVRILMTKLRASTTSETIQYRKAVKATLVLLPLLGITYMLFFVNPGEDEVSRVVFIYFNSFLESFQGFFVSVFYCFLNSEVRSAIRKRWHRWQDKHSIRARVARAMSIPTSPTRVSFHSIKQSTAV
Method in brief: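 Peptide-stimulated cAMP was measured in stable HEK293 lines by HTRF ratio (665/620 nm), converted to pmol/well via standard curve. Assay buffer contained 0.25 mM IBMX, 0.1% casein and 5 mM HEPES pH 7.4. CRHR2b cells (5,000/well) were stimulated 30 min at room temperature; CRHR1 cells (25,000/well) 1 h at 37 °C.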

[2] = male, Sprague Dawley, rat, plasma, iv, 201 nmol/kg, single intravenous dose 201 nmol/kg, individual animal
[3] = male, Sprague Dawley, rat, plasma, iv, 201 nmol/kg, single intravenous dose 201 nmol/kg, mean
[4] = male, Sprague Dawley, rat, plasma, sc, 201 nmol/kg, single subcutaneous dose 201 nmol/kg, individual animal
[5] = male, Sprague Dawley, rat, plasma, sc, 201 nmol/kg, single subcutaneous dose 201 nmol/kg, mean
[6] = single intravenous dose 201 nmol/kg, male Sprague Dawley rats, individual animal
[7] = single subcutaneous dose 201 nmol/kg, male Sprague Dawley rats, individual animal
[8] = dose response, single subcutaneous dose 10 nmol/kg, male Sprague Dawley rats, individual animal
[9] = dose response, single subcutaneous dose 30 nmol/kg, male Sprague Dawley rats, individual animal
[10] = dose response, single subcutaneous dose 100 nmol/kg, male Sprague Dawley rats, individual animal
[11] = male Sprague Dawley rats, single intravenous dose 187 nmol/kg, individual animal
[12] = male, Sprague Dawley, rat, plasma, iv, 187 nmol/kg, single intravenous dose 187 nmol/kg, Mean
[13] = male, Sprague Dawley, rat, plasma, sc, 10 nmol/kg, dose response, single subcutaneous dose 10 nmol/kg, individual animal
[14] = male, Sprague Dawley, rat, plasma, sc, 10 nmol/kg, dose response, single subcutaneous dose 10 nmol/kg, mean
[15] = male, Sprague Dawley, rat, plasma, sc, 30 nmol/kg, dose response, single subcutaneous dose 30 nmol/kg, individual animal
[16] = male, Sprague Dawley, rat, plasma, sc, 30 nmol/kg, dose response, single subcutaneous dose 30 nmol/kg, mean
[17] = male, Sprague Dawley, rat, plasma, sc, 100 nmol/kg, dose response, single subcutaneous dose 100 nmol/kg, individual animal
[18] = male, Sprague Dawley, rat, plasma, sc, 100 nmol/kg, dose response, single subcutaneous dose 100 nmol/kg, mean
[19] = male, Sprague Dawley, rat, plasma, sc, 187 nmol/kg, single subcutaneous dose 187 nmol/kg, individual animal
[20] = male, Sprague Dawley, rat, plasma, sc, 187 nmol/kg, single subcutaneous dose 187 nmol/kg, mean
[21] = single subcutaneous dose 187 nmol/kg, male Sprague Dawley rats, individual animal

clearance [1, 2]: 3.37 mL/h/kg | half-life [1, 2]: 20.3 h | clearance [1, 3]: 2.93 mL/h/kg | half-life [1, 3]: 19.2 h | half-life [1, 4]: 19.7 h | CL/F ([1]; male, Sprague Dawley, rat, plasma, sc, 201 nmol/kg, single subcutaneous dose 201 nmol/kg, individual animal, read-out: CL/F (converted)): 7.55 mL/h/kg | Tmax [1, 4]: 24 h | half-life [1, 5]: 17.1 h | CL/F ([1]; male, Sprague Dawley, rat, plasma, sc, 201 nmol/kg, single subcutaneous dose 201 nmol/kg, mean, read-out: CL/F (converted)): 7.53 mL/h/kg | Tmax [1, 5]: 24 h | AUC0-inf ([1]; rat, plasma, sc, single subcutaneous dose 201 nmol/kg, male Sprague Dawley rats, mean, read-out: AUC0-inf): 26.8 µM·h | Cmax ([1]; rat, plasma, sc, single subcutaneous dose 201 nmol/kg, male Sprague Dawley rats, mean, read-out: Cmax): 552 nM | AUC0-inf ([1]; rat, plasma, single intravenous dose 201 nmol/kg, male Sprague Dawley rats, mean, read-out: AUC0-inf): 69.2 µM·h | C0 ([1]; rat, plasma, single intravenous dose 201 nmol/kg, male Sprague Dawley rats, mean, read-out: C0): 5290 nM | CL [1, 6]: 2.71 mL/h/kg and 2.72 mL/h/kg | T1/2 [1, 6]: 18.3 h and 19.0 h | CL/F [1, 7]: 8.03 mL/h/kg and 7.01 mL/h/kg | T1/2 [1, 7]: 14.9 h and 16.7 h | EC50 (human CRHR1): > 1e+07 pM
Compound: CC[C@H](C)[C@H](NC)C(=O)N[C@H](C(=O)N[C@H](C(=O)N[C@@H](CO)C(=O)N[C@@H](CC(C)C)C(=O)N[C@@H](CC(=O)O)C(=O)N[C@H](C(=O)N1CCC[C@H]1C(=O)N[C@H](C(=O)NCC(=O)N[C@@](C)(CC(C)C)C(=O)N[C@@H](CC(C)C)C(=O)N[C@@H](CCC(N)=O)C(=O)N[C@@H](CCCCN)C(=O)N[C@@H](CC(C)C)C(=O)N[C@@H](CC(C)C)C(=O)N[C@@H](CCC(=O)O)C(=O)N[C@@H](CCC(N)=O)C(=O)N[C@@H](CCC(=O)O)C(=O)N[C@@H](CCCNC(=N)N)C(=O)N[C@@H](C)C(=O)N[C@@H](CCC(=O)O)C(=O)N[C@@H](CCCCN)C(=O)N[C@@H](C)C(=O)N[C@@H](CCCNC(=N)N)C(=O)N[C@@H](CCC(N)=O)C(=O)N[C@@H](CCC(N)=O)C(=O)N[C@@H](C)C(=O)N[C@@H](CCCCNC(=O)COCCOCCNC(=O)COCCOCCNC(=O)CC[C@H](NC(=O)CCCCCCCCCCCCCCCCCCC(=O)O)C(=O)O)C(=O)N[C@@H](CCC(=O)O)C(=O)N[C@@H](C)C(=O)N[C@@H](C)C(=O)N[C@@H](CCC(=O)O)C(=O)N[C@H](C(=O)N[C@@H](CC(C)C)C(=O)N[C@@H](C)C(=O)N[C@@H](CCC(N)=O)C(=O)N[C@H](C(N)=O)C(C)C)[C@@H](C)CC)[C@@H](C)CC)C(C)C)[C@@H](C)O)C(C)C [SEQ ID NO: 50, (NMeI) VTSLDVPIG αMeL LQKLLEQERAEKARQQAK((2-[2-(2-Amino-ethoxy)-ethoxy]-acetyl)2-γE-CO-(CH2)18-CO2H)EAAEILAQV-NH2] (H-[NMeI]VTSLDVPIG[αMeL]LQKLLEQERAEKARQQAK([AEEA-AEEA-γGlu-C20 diacid])EAAEILAQV-NH2)
AUC0-inf [1, 6]: 59.6 µM·h and 74.2 µM·h and 73.9 µM·h | C0 [1, 6]: 5560 nM and 4360 nM and 5960 nM | AUC0-inf [1, 7]: 26.7 µM·h and 25.1 µM·h and 28.7 µM·h | Cmax [1, 7]: 577 nM and 460 nM and 618 nM

CL/F [1, 8]: 6.10 mL/h/kg and 4.63 mL/h/kg | T1/2 [1, 8]: 41.7 h and 31.1 h | CL/F [1, 9]: 4.55 mL/h/kg and 4.19 mL/h/kg | T1/2 [1, 9]: 37.1 h and 36.1 h | CL/F [1, 10]: 4.86 mL/h/kg and 4.91 mL/h/kg | T1/2 [1, 10]: 26.0 h and 24.6 h | CL [1, 11]: 2.04 mL/h/kg and 2.42 mL/h/kg | T1/2 [1, 11]: 47.5 h and 23.2 h and 31.0 h | clearance [1, 12]: 2.05 mL/h/kg | half-life [1, 12]: 33.9 h | clearance ([1]; male, Sprague Dawley, rat, plasma, iv, 187 nmol/kg, single intravenous dose 187 nmol/kg, individual animal): 1.69 mL/h/kg | half-life [1, 13]: 26 h | CL/F ([1]; male, Sprague Dawley, rat, plasma, sc, 10 nmol/kg, dose response, single subcutaneous dose 10 nmol/kg, individual animal, read-out: CL/F (converted)): 5.1 mL/h/kg | Tmax [1, 13]: 24 h | half-life [1, 14]: 32.9 h | CL/F ([1]; male, Sprague Dawley, rat, plasma, sc, 10 nmol/kg, dose response, single subcutaneous dose 10 nmol/kg, mean, read-out: CL/F (converted)): 5.28 mL/h/kg | Tmax [1, 14]: 24 h | half-life [1, 15]: 31.5 h | CL/F ([1]; male, Sprague Dawley, rat, plasma, sc, 30 nmol/kg, dose response, single subcutaneous dose 30 nmol/kg, individual animal, read-out: CL/F (converted)): 4.8 mL/h/kg | Tmax [1, 15]: 24 h | half-life [1, 16]: 34.9 h | CL/F ([1]; male, Sprague Dawley, rat, plasma, sc, 30 nmol/kg, dose response, single subcutaneous dose 30 nmol/kg, mean, read-out: CL/F (converted)): 4.51 mL/h/kg | Tmax [1, 16]: 32 h | half-life [1, 17]: 30.8 h | CL/F ([1]; male, Sprague Dawley, rat, plasma, sc, 100 nmol/kg, dose response, single subcutaneous dose 100 nmol/kg, individual animal, read-out: CL/F (converted)): 5.46 mL/h/kg | Tmax [1, 17]: 24 h | half-life [1, 18]: 27.1 h | CL/F ([1]; male, Sprague Dawley, rat, plasma, sc, 100 nmol/kg, dose response, single subcutaneous dose 100 nmol/kg, mean, read-out: CL/F (converted)): 5.08 mL/h/kg | Tmax [1, 18]: 24 h | half-life [1, 19]: 37.7 h | CL/F ([1]; male, Sprague Dawley, rat, plasma, sc, 187 nmol/kg, single subcutaneous dose 187 nmol/kg, individual animal, read-out: CL/F (converted)): 3.67 mL/h/kg | Tmax [1, 19]: 24 h | half-life [1, 20]: 35.7 h | CL/F ([1]; male, Sprague Dawley, rat, plasma, sc, 187 nmol/kg, single subcutaneous dose 187 nmol/kg, mean, read-out: CL/F (converted)): 4.07 mL/h/kg | Tmax [1, 20]: 24 h | AUC0-inf ([1]; rat, plasma, sc, dose response, single subcutaneous dose 10 nmol/kg, male Sprague Dawley rats, mean, read-out: AUC0-inf): 2.05 µM·h | Cmax ([1]; rat, plasma, sc, dose response, single subcutaneous dose 10 nmol/kg, male Sprague Dawley rats, mean, read-out: Cmax): 34.2 nM | AUC0-inf ([1]; rat, plasma, sc, dose response, single subcutaneous dose 30 nmol/kg, male Sprague Dawley rats, mean, read-out: AUC0-inf): 7.01 µM·h | Cmax ([1]; rat, plasma, sc, dose response, single subcutaneous dose 30 nmol/kg, male Sprague Dawley rats, mean, read-out: Cmax): 105 nM | AUC0-inf ([1]; rat, plasma, sc, dose response, single subcutaneous dose 100 nmol/kg, male Sprague Dawley rats, mean, read-out: AUC0-inf): 20.2 µM·h | Cmax ([1]; rat, plasma, sc, dose response, single subcutaneous dose 100 nmol/kg, male Sprague Dawley rats, mean, read-out: Cmax): 334 nM | AUC0-inf ([1]; rat, plasma, sc, single subcutaneous dose 187 nmol/kg, male Sprague Dawley rats, mean, read-out: AUC0-inf): 49 µM·h | Cmax ([1]; rat, plasma, sc, single subcutaneous dose 187 nmol/kg, male Sprague Dawley rats, mean, read-out: Cmax): 657 nM | AUC0-inf ([1]; rat, plasma, male Sprague Dawley rats, single intravenous dose 187 nmol/kg, Mean, read-out: AUC0-inf): 93.4 µM·h | C0 ([1]; rat, plasma, male Sprague Dawley rats, single intravenous dose 187 nmol/kg, Mean, read-out: C0): 5110 nM | CL/F [1, 21]: 4.77 mL/h/kg and 3.77 mL/h/kg | T1/2 [1, 21]: 38.2 h and 31.2 h | EC50 (human CRHR1): > 1e+07 pM
Compound: Ac-GSPSIVTS[αMeL]DVPT[Aib][αMeL]LQKILEQERAEKARQQAK([γGlu-AEEA-εLys-C20 diacid])EAAEILAQV-NH2 [SEQ ID NO: 1, Ac-GSPSIVTS αMeL DVPT Aib αMeL LQKILEQERAEKARQQAK(γE-(2-[2-(2-Amino-ethoxy)-ethoxy]-acetyl)-ϵK-CO-(CH2)18-CO2H)EAAEILAQV-NH2]
AUC0-inf [1, 8]: 2.07 µM·h and 1.86 µM·h and 2.21 µM·h | Cmax [1, 8]: 37.7 nM and 26.4 nM and 38.5 nM | AUC0-inf [1, 9]: 6.42 µM·h and 6.92 µM·h and 7.69 µM·h | Cmax [1, 9]: 102 nM and 110 nM and 104 nM | AUC0-inf [1, 10]: 18.8 µM·h and 21.1 µM·h and 20.7 µM·h | Cmax [1, 10]: 348 nM and 332 nM and 321 nM | AUC0-inf [1, 11]: 111 µM·h and 91.9 µM·h and 77.3 µM·h | C0 [1, 11]: 5970 nM and 6950 nM and 2400 nM | AUC0-inf [1, 21]: 53.9 µM·h and 41.2 µM·h and 51.8 µM·h | Cmax [1, 21]: 804 nM and 511 nM and 657 nM
